Five molecules from patent US20110040086A1, “Novel Beta-Lactam Antibiotics, Methods for Their Production, and Their Use” (DRITTE PATENTPORTFOLIO BETEILIGUNGSGESELLSCHAFT MB, priority 2007, published 2011) can be followed below.

The subject of assay [1] is Escherichia coli SBUG 1135. Description: agar diffusion test (Test System 1, antimicrobial effect). It counts as cell-based. More on the design: key: r = resistant (no detectable zone of inhibition). The essentials:
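E. coli SBUG 1135 grown 17 h at 37° C, 180 rpm, diluted 1:100 and seeded in nutrient agar at ~10^6 cells. Discs loaded with 10, 50 or 100 μg compound (methanol or water); inhibition-zone diameter (mm) read after 20 h at 37° C.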
For orientation: Agar diffusion results depend on both activity and mobility in agar.

In another assay the test system is B. subtilis AWD 166. Description: agar diffusion test (antimicrobial effect). It counts as cell-based, Bacillus subtilis. In a few lines: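 Nutrient agar seeded with B. subtilis AWD 166 to give dense non-confluent colonies; compounds in methanol or distilled water applied to discs at 10, 50, 100 μg. After 20 h at 37 °C, inhibition zone diameter measured in mm.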

Another assay relates to E. faecalis 945. Description: agar diffusion test (Test System II, multi-resistant germs). The class given is cell-based, Enterococcus faecalis. More on the design: key: r = resistant (no detectable zone of inhibition). The essentials: (§1)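 Compounds, dissolved in methanol or distilled water, were loaded onto paper discs at 10, 50 and 100 μg and placed three per plate on Müller-Hinton agar II spread with a McFarland 0.5 saline suspension. After 18-20 h at 37 °C, inhibition zone diameters were measured.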

A further assay has as its system S. epidermidis 1068. Described as above. The class given is cell-based, Staphylococcus epidermidis. More on the design: key: r = resistant (no detectable zone of inhibition). In a few lines:
as §1

For another assay, the system named is S. epidermidis 563. The description is as above. The class given is cell-based, Staphylococcus epidermidis. More on the design: key: r = resistant (no detectable zone of inhibition). The essentials:
as §1

A further assay relates to S. epidermidis 847. Described as above. It counts as cell-based, Staphylococcus epidermidis. Set-up: key: r = resistant (no detectable zone of inhibition). In a few lines:
as §1

For a further assay, the system named is S. epidermidis 1071. The description is as above. It counts as cell-based, Staphylococcus epidermidis. Set-up: key: r = resistant (no detectable zone of inhibition). The essentials:
as §1

As to “7-[2-(2-carbamoyl-3,6-dioxocyclohexa-1,4-dienylamino)-2-(4-hydroxyphenyl)-acetylamino]-desacetoxycephalosporanic acid [1b]”, the “Diameter of zone of inhibition” value in assay [1] (Quantity n 0.019) is listed as “r”; in assay [1] (Quantity n 0.1), 14 mm; in assay [1] (Quantity n 0.19), 18 mm; in the assay with B. subtilis AWD 166 (Quantity n 0.019) it was 22 mm; in the assay on B. subtilis AWD 166 (Quantity n 0.1), 30 mm; with B. subtilis AWD 166 (Quantity n 0.19) it was 32 mm. The “Diameter of zone of inhibition” value with E. faecalis 945 (Quantity n 0.019) is “r”; with E. faecalis 945 (Quantity n 0.1), “r”; in the assay with E. faecalis 945 (Quantity n 0.19), “r”; with S. epidermidis 1068 (Quantity n 0.019), “r”; in the assay on S. epidermidis 1068 (Quantity n 0.1), 16 mm; with S. epidermidis 1068 (Quantity n 0.19), 20 mm. Besides, the “Diameter of zone of inhibition” value was “r” in the assay with S. epidermidis 563 (Quantity n 0.019); 14 mm in the assay with S. epidermidis 563 (Quantity n 0.1); 20 mm in the assay on S. epidermidis 563 (Quantity n 0.19); “r” with S. epidermidis 847 (Quantity n [mol] 0.019); 10 mm in the assay with S. epidermidis 847 (Quantity n [mol] 0.1); 12 mm in the assay on S. epidermidis 847 (Quantity n [mol] 0.19). The “Diameter of zone of inhibition” value in the assay on S. epidermidis 1071 (Quantity n 0.019) is on record as “r”; in the assay on S. epidermidis 1071 (Quantity n 0.1), 18 mm; in the assay with S. epidermidis 1071 (Quantity n 0.19), 22 mm.
Take `CC1=C(C(=O)O)N2C(=O)C(NC(=O)C(NC3=C(C(N)=O)C(=O)C=CC3=O)c3ccccc3)C2SC1` (stereo not drawn) [1f, 7-[2-(2-carbamoyl-3,6-dioxocyclohexa-1,4-dienylamino)-2-phenyl-acetylamino]-desacetoxycephalosporanic acid]: the “Diameter of zone of inhibition” value was “r” in assay [1] (Quantity n 0.02); 14 mm in assay [1] (Quantity n 0.1); 18 mm in assay [1] (Quantity n 0.2); 24 mm in the assay with B. subtilis AWD 166 (Quantity n 0.02); 30 mm with B. subtilis AWD 166 (Quantity n 0.1); 32 mm in the assay on B. subtilis AWD 166 (Quantity n 0.2). For the same molecule, the “Diameter of zone of inhibition” value in the assay on E. faecalis 945 (Quantity n 0.02) is given as “r”; in the assay on E. faecalis 945 (Quantity n 0.1), “r”; in the assay on E. faecalis 945 (Quantity n 0.2) it was “r”; in the assay on S. epidermidis 1068 (Quantity n 0.02) it was “r”; with S. epidermidis 1068 (Quantity n 0.1), 12 mm; in the assay on S. epidermidis 1068 (Quantity n 0.2), 16 mm. The “Diameter of zone of inhibition” value in the assay with S. epidermidis 563 (Quantity n 0.02) is “r”; in the assay on S. epidermidis 563 (Quantity n 0.1) it was 18 mm; in the assay on S. epidermidis 563 (Quantity n 0.2), 24 mm; in the assay with S. epidermidis 847 (Quantity n [mol] 0.02), “r”; in the assay on S. epidermidis 847 (Quantity n [mol] 0.1), 16 mm; in the assay with S. epidermidis 847 (Quantity n [mol] 0.2) it was 20 mm. The “Diameter of zone of inhibition” value stood at 8 mm in the assay on S. epidermidis 1071 (Quantity n 0.02), 16 mm in the assay on S. epidermidis 1071 (Quantity n 0.1) and 18 mm in the assay with S. epidermidis 1071 (Quantity n 0.2).
Consider `NC(=O)C1=C(NC(C(=O)NC2C(=O)N3C(C(=O)O)=C(Cl)CSC23)c2ccccc2)C(=O)C=CC1=O` (stereo not drawn) [1j, 3-chlorine-7-[2-(2-carbamoyl-3,6-dioxocyclohexa-1,4-dienylamino)-2-phenyl-acetylamino]-8-oxo-1-thia-5-azabicyclo[4.2.0]oct-3-en-4-carboxylic acid], for which the “Diameter of zone of inhibition” value in assay [1] (Quantity n 0.02) amounted to 18 mm; in assay [1] (Quantity n 0.1) it was 26 mm; in assay [1] (Quantity n 0.2) it was 28 mm; in the assay on B. subtilis AWD 166 (Quantity n 0.02) it was 30 mm; with B. subtilis AWD 166 (Quantity n 0.1), 38 mm; in the assay on B. subtilis AWD 166 (Quantity n 0.2), 40 mm. Further, the “Diameter of zone of inhibition” value in the assay on E. faecalis 945 (Quantity n 0.02) is recorded as “r”; with E. faecalis 945 (Quantity n 0.1), “r”; with E. faecalis 945 (Quantity n 0.2) it was “r”; in the assay with S. epidermidis 1068 (Quantity n 0.02) it was 16 mm; in the assay on S. epidermidis 1068 (Quantity n 0.1) it was 22 mm; with S. epidermidis 1068 (Quantity n 0.2), 26 mm. Further, the “Diameter of zone of inhibition” value in the assay on S. epidermidis 563 (Quantity n 0.02) worked out at 20 mm; with S. epidermidis 563 (Quantity n 0.1), 26 mm; with S. epidermidis 563 (Quantity n 0.2), 32 mm; in the assay with S. epidermidis 847 (Quantity n [mol] 0.02), 10 mm; in the assay on S. epidermidis 847 (Quantity n [mol] 0.1) it was 20 mm; with S. epidermidis 847 (Quantity n [mol] 0.2), 24 mm. Besides, the “Diameter of zone of inhibition” value in the assay with S. epidermidis 1071 (Quantity n 0.02) amounted to 18 mm; in the assay on S. epidermidis 1071 (Quantity n 0.1), 26 mm; in the assay on S. epidermidis 1071 (Quantity n 0.2), 28 mm.
Regarding “3-chlorine-7-[2-(2-methoxycarbonyl-3,6-dioxocyclohexa-1,4-dienylamino)-2-phenyl-acetylamino]-8-oxo-1-thia-5-azabicyclo[4.2.0]oct-3-en-4-carboxylic acid [1k]”, the “Diameter of zone of inhibition” value in assay [1] (Quantity n 0.029) is given as 18 mm; in assay [1] (Quantity n 0.14), 24 mm; in assay [1] (Quantity n 0.29), 28 mm; in the assay with B. subtilis AWD 166 (Quantity n 0.029) it was 30 mm; in the assay with B. subtilis AWD 166 (Quantity n 0.14), 36 mm; with B. subtilis AWD 166 (Quantity n 0.29), 38 mm. In addition, the “Diameter of zone of inhibition” value in the assay with E. faecalis 945 (Quantity n 0.029) was “r”; in the assay with E. faecalis 945 (Quantity n 0.14) it was “r”; in the assay with E. faecalis 945 (Quantity n 0.29), “r”; with S. epidermidis 1068 (Quantity n 0.029) it was 14 mm; in the assay on S. epidermidis 1068 (Quantity n 0.14) it was 22 mm; with S. epidermidis 1068 (Quantity n 0.29), 24 mm. Also, the “Diameter of zone of inhibition” value was 18 mm in the assay on S. epidermidis 563 (Quantity n 0.029); 28 mm with S. epidermidis 563 (Quantity n 0.14); 30 mm in the assay with S. epidermidis 563 (Quantity n 0.29); 8 mm with S. epidermidis 847 (Quantity n [mol] 0.029); 24 mm in the assay on S. epidermidis 847 (Quantity n [mol] 0.14); 28 mm in the assay with S. epidermidis 847 (Quantity n [mol] 0.29). The “Diameter of zone of inhibition” value is 18 mm in the assay on S. epidermidis 1071 (Quantity n 0.029), 24 mm with S. epidermidis 1071 (Quantity n 0.14) and 28 mm in the assay on S. epidermidis 1071 (Quantity n 0.29).
Regarding `CCOC(=O)C1=C(NC(C(=O)NC2C(=O)N3C(C(=O)O)=C(Cl)CSC23)c2ccccc2)C(=O)C=CC1=O` (stereo not drawn) [1l], the “Diameter of zone of inhibition” value in assay [1] (Quantity n 0.019) came to 18 mm; in assay [1] (Quantity n 0.09) it was 24 mm; in assay [1] (Quantity n 0.19), 28 mm; with B. subtilis AWD 166 (Quantity n 0.019) it was 30 mm; in the assay on B. subtilis AWD 166 (Quantity n 0.09) it was 34 mm; with B. subtilis AWD 166 (Quantity n 0.19) it was 38 mm. The “Diameter of zone of inhibition” value is given as “r” with E. faecalis 945 (Quantity n 0.019); “r” in the assay with E. faecalis 945 (Quantity n 0.09); “r” with E. faecalis 945 (Quantity n 0.19); 14 mm in the assay with S. epidermidis 1068 (Quantity n 0.019); 20 mm in the assay with S. epidermidis 1068 (Quantity n 0.09); 22 mm with S. epidermidis 1068 (Quantity n 0.19). Further, the “Diameter of zone of inhibition” value is on record as 16 mm with S. epidermidis 563 (Quantity n 0.019); 28 mm in the assay on S. epidermidis 563 (Quantity n 0.09); 30 mm in the assay with S. epidermidis 563 (Quantity n 0.19); “r” with S. epidermidis 847 (Quantity n [mol] 0.019); 20 mm with S. epidermidis 847 (Quantity n [mol] 0.09); 22 mm in the assay on S. epidermidis 847 (Quantity n [mol] 0.19). Besides, the entries for the “Diameter of zone of inhibition” value with S. epidermidis 1071 (Quantity n 0.019), in the assay on S. epidermidis 1071 (Quantity n 0.09) and in the assay with S. epidermidis 1071 (Quantity n 0.19) were 16 mm, 24 mm and 28 mm, respectively.
